Toxic doses and inconclusive results are not listed.

In the experiment the test system is L1210 leukemia ip in BDF1 mice, survival T/C. In words: NCI In Vivo Anticancer Drug Screen. Data for tumor model L1210 Leukemia (intraperitoneal) in B6D2F1 (BDF1) mice. To be noted: higher = longer survival. The gist of the method:
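Read-out is survival time, reported as the treated-group measurement over the vehicle-control measurement.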

[1] abbreviates: endpoint: mean survival time, dose: 100.0 mg/kg/injection, schedule: Q01DX001 (ip), vehicle: carboxymethylcellulose (CMC).
Setting [2] is: endpoint: mean survival time, dose: 200.0 mg/kg/injection, schedule: Q01DX001 (ip), vehicle: carboxymethylcellulose (CMC).

Turning to `CCCCCCCCCCCCCCCCCC[N+](C)(C)c1nc(Cl)nc(Cl)n1`, the T/C by setting is: (endpoint: mean survival time, dose: 13.0 mg/kg/injection, schedule: Q01DX015 (ip), vehicle: carboxymethylcellulose (CMC)) 98 % of control; (endpoint: mean survival time, dose: 25.0 mg/kg/injection, schedule: Q01DX015 (ip), vehicle: carboxymethylcellulose (CMC)) 92 % of control; (endpoint: mean survival time, dose: 37.5 mg/kg/injection, schedule: Q04DX003 (ip), vehicle: Klucel (hydroxypropylcellulose) (HPC)) 103 % of control; (endpoint: mean survival time, dose: 50.0 mg/kg/injection, schedule: Q01DX015 (ip), vehicle: carboxymethylcellulose (CMC)) 93 % of control; (endpoint: mean survival time, dose: 75.0 mg/kg/injection, schedule: Q04DX003 (ip), vehicle: Klucel (hydroxypropylcellulose) (HPC)) 97 % of control; under setting [1], 92 % of control. For the same compound, the T/C (endpoint: mean survival time, dose: 100.0 mg/kg/injection, schedule: Q01DX015 (ip), vehicle: carboxymethylcellulose (CMC)) was 93 % of control and the T/C under setting [2] is 97 % of control.
For the compound `CC(C)(C)OC(=O)NOC(=O)c1ccc([N+](=O)[O-])cc1`, the T/C by setting is: (endpoint: mean survival time, dose: 100.0 mg/kg/injection, schedule: Q04DX002 (ip), vehicle: Klucel (hydroxypropylcellulose) (HPC)) 104 % of control; (endpoint: mean survival time, dose: 200.0 mg/kg/injection, schedule: Q04DX002 (ip), vehicle: Klucel (hydroxypropylcellulose) (HPC)) 96 % of control; (endpoint: mean survival time, dose: 400.0 mg/kg/injection, schedule: Q04DX002 (ip), vehicle: Klucel (hydroxypropylcellulose) (HPC)) 107 % of control.
Regarding `Nc1ccccc1C(=O)OCCc1ccccc1`, the T/C (endpoint: mean survival time, dose: 100.0 mg/kg/injection, schedule: Q01DX009 (ip), vehicle: Klucel (hydroxypropylcellulose) (HPC)) is 93 % of control; the T/C (endpoint: mean survival time, dose: 100.0 mg/kg/injection, schedule: Q04DX003 (ip), vehicle: Klucel (hydroxypropylcellulose) (HPC)) is 94 % of control; the T/C (endpoint: mean survival time, dose: 200.0 mg/kg/injection, schedule: Q01DX009 (ip), vehicle: Klucel (hydroxypropylcellulose) (HPC)) is 93 % of control; the T/C (endpoint: mean survival time, dose: 200.0 mg/kg/injection, schedule: Q04DX003 (ip), vehicle: Klucel (hydroxypropylcellulose) (HPC)) is 95 % of control; the T/C (endpoint: mean survival time, dose: 400.0 mg/kg/injection, schedule: Q01DX009 (ip), vehicle: Klucel (hydroxypropylcellulose) (HPC)) is 95 % of control; the T/C (endpoint: mean survival time, dose: 400.0 mg/kg/injection, schedule: Q04DX003 (ip), vehicle: Klucel (hydroxypropylcellulose) (HPC)) was 92 % of control.
Take `O=C(O)C(Cc1ccsc1)C(=O)O`: the T/C reads like this: (endpoint: mean survival time, dose: 100.0 mg/kg/injection, schedule: Q01DX001 (ip), vehicle: saline) 101 % of control; (endpoint: mean survival time, dose: 200.0 mg/kg/injection, schedule: Q01DX001 (ip), vehicle: saline) 93 % of control.
As for `Clc1ccc([As](c2ccc(Cl)cc2)c2ccc(Cl)cc2)cc1`, the T/C by setting is: (endpoint: mean survival time, dose: 100.0 mg/kg/injection, schedule: Q04DX003 (ip), vehicle: saline with Tween-80) 100 % of control; (endpoint: mean survival time, dose: 200.0 mg/kg/injection, schedule: Q04DX003 (ip), vehicle: saline with Tween-80) 90 % of control; (endpoint: mean survival time, dose: 400.0 mg/kg/injection, schedule: Q04DX003 (ip), vehicle: saline with Tween-80) 101 % of control.
As for `O=C1C(c2ccccc2)=CC(c2ccccc2)=C1c1ccccc1`, the T/C reads like this: (endpoint: mean survival time, dose: 50.0 mg/kg/injection, schedule: Q01DX001 (ip), vehicle: carboxymethylcellulose (CMC)) 91 % of control; under setting [1], 91 % of control; under setting [2], 94 % of control; (endpoint: mean survival time, dose: 400.0 mg/kg/injection, schedule: Q01DX001 (ip), vehicle: carboxymethylcellulose (CMC)) 94 % of control.
`Nc1ccc2c(c1)CCC2=O`: the T/C was 98 % of control (endpoint: mean survival time, dose: 100.0 mg/kg/injection, schedule: Q04DX002 (ip), vehicle: saline with Tween-80); 102 % of control (endpoint: mean survival time, dose: 200.0 mg/kg/injection, schedule: Q04DX002 (ip), vehicle: saline with Tween-80); 90 % of control (endpoint: mean survival time, dose: 400.0 mg/kg/injection, schedule: Q04DX002 (ip), vehicle: saline with Tween-80).
As for `C[C@H](CN1CC(=O)NC(=O)C1)N1CC(=O)NC(=O)C1`, the T/C was 124 % of control (endpoint: mean survival time, dose: 25.0 mg/kg/injection, schedule: Q04DX003 (ip), vehicle: saline); 104 % of control (endpoint: mean survival time, dose: 25.0 mg/kg/injection, schedule: Q04DX003 (ip), vehicle: water); 117 % of control (endpoint: mean survival time, dose: 50.0 mg/kg/injection, schedule: Q04DX003 (ip), vehicle: saline); 110 % of control (endpoint: mean survival time, dose: 50.0 mg/kg/injection, schedule: Q04DX003 (ip), vehicle: water); 117 % of control (endpoint: mean survival time, dose: 100.0 mg/kg/injection, schedule: Q04DX003 (ip), vehicle: saline); 158 % of control (endpoint: mean survival time, dose: 200.0 mg/kg/injection, schedule: Q04DX003 (ip), vehicle: saline). In addition, the T/C runs as follows: (endpoint: mean survival time, dose: 200.0 mg/kg/injection, schedule: Q04DX003 (ip), vehicle: water) 152 % of control; (endpoint: mean survival time, dose: 400.0 mg/kg/injection, schedule: Q04DX003 (ip), vehicle: saline) 182 % of control; (endpoint: mean survival time, dose: 400.0 mg/kg/injection, schedule: Q04DX003 (ip), vehicle: water) 184 % of control; (endpoint: mean survival time, dose: 800.0 mg/kg/injection, schedule: Q04DX003 (ip), vehicle: saline) 187 % of control; (endpoint: mean survival time, dose: 800.0 mg/kg/injection, schedule: Q04DX003 (ip), vehicle: water) 107 % of control; (endpoint: median survival time, dose: 8.0 mg/kg/injection, schedule: Q03HX008 (ip), vehicle: saline) 153 % of control. In addition, the T/C (endpoint: median survival time, dose: 8.0 mg/kg/injection, schedule: Q03HX016 (ip), vehicle: saline) is 204 % of control; the T/C (endpoint: median survival time, dose: 16.0 mg/kg/injection, schedule: Q01DX009 (sc), vehicle: saline) was 152 % of control; the T/C (endpoint: median survival time, dose: 16.0 mg/kg/injection, schedule: Q03HX008 (ip), vehicle: saline) was 163 % of control; the T/C (endpoint: median survival time, dose: 16.0 mg/kg/injection, schedule: Q03HX016 (ip), vehicle: saline) was 203 % of control; the T/C (endpoint: median survival time, dose: 16.0 mg/kg/injection, schedule: Q03HX024 (ip), vehicle: saline) was 98 % of control; the T/C (endpoint: median survival time, dose: 32.0 mg/kg/injection, schedule: Q01DX009 (sc), vehicle: saline) is 156 % of control. Also, the T/C by setting is: (endpoint: median survival time, dose: 32.0 mg/kg/injection, schedule: Q03HX008 (ip), vehicle: saline) 160 % of control; (endpoint: median survival time, dose: 32.0 mg/kg/injection, schedule: Q03HX024 (ip), vehicle: saline) 94 % of control; (endpoint: median survival time, dose: 64.0 mg/kg/injection, schedule: Q01DX001 (ip), vehicle: saline) 102 % of control; (endpoint: median survival time, dose: 64.0 mg/kg/injection, schedule: Q01DX009 (sc), vehicle: saline) 110 % of control; (endpoint: median survival time, dose: 64.0 mg/kg/injection, schedule: Q04DX003 (ip), vehicle: saline) 108 % of control; (endpoint: median survival time, dose: 64.0 mg/kg/injection, schedule: Q04DX003 (sc), vehicle: saline) 121 % of control. In addition, the T/C was 109 % of control (endpoint: median survival time, dose: 64.0 mg/kg/injection, schedule: Q08DX002 (ip), vehicle: saline); 107 % of control (endpoint: median survival time, dose: 128.0 mg/kg/injection, schedule: Q01DX001 (ip), vehicle: saline); 93 % of control (endpoint: median survival time, dose: 128.0 mg/kg/injection, schedule: Q01DX009 (sc), vehicle: saline); 152 % of control (endpoint: median survival time, dose: 128.0 mg/kg/injection, schedule: Q03HX008 (ip), vehicle: saline); 124 % of control (endpoint: median survival time, dose: 128.0 mg/kg/injection, schedule: Q04DX003 (ip), vehicle: saline); 107 % of control (endpoint: median survival time, dose: 128.0 mg/kg/injection, schedule: Q08DX002 (ip), vehicle: saline). Further, the T/C runs as follows: (endpoint: median survival time, dose: 256.0 mg/kg/injection, schedule: Q01DX001 (ip), vehicle: saline) 109 % of control; (endpoint: median survival time, dose: 256.0 mg/kg/injection, schedule: Q04DX003 (sc), vehicle: saline) 172 % of control; (endpoint: median survival time, dose: 512.0 mg/kg/injection, schedule: Q01DX001 (ip), vehicle: saline) 120 % of control; (endpoint: median survival time, dose: 512.0 mg/kg/injection, schedule: Q04DX003 (ip), vehicle: saline) 157 % of control; (endpoint: median survival time, dose: 512.0 mg/kg/injection, schedule: Q04DX003 (sc), vehicle: saline) 202 % of control; (endpoint: median survival time, dose: 512.0 mg/kg/injection, schedule: Q08DX002 (ip), vehicle: saline) 121 % of control. In addition, the T/C is 193 % of control (endpoint: median survival time, dose: 1024.0 mg/kg/injection, schedule: Q04DX003 (ip), vehicle: saline); 180 % of control (endpoint: median survival time, dose: 1024.0 mg/kg/injection, schedule: Q04DX003 (sc), vehicle: saline); 179 % of control (endpoint: median survival time, dose: 1024.0 mg/kg/injection, schedule: Q08DX002 (ip), vehicle: saline).
In the case of `CN=C(NCc1ccccc1)c1ccc(NC(=O)c2ccc(C(=O)Nc3ccc(C(=NC)NCc4ccccc4)cc3)c(Cl)c2)cc1`, the T/C is 92 % of control (endpoint: mean survival time, dose: 2.0 mg/kg/injection, schedule: Q01DX Z (ip), vehicle: carboxymethylcellulose (CMC)); 105 % of control (endpoint: mean survival time, dose: 4.0 mg/kg/injection, schedule: Q01DX Z (ip), vehicle: carboxymethylcellulose (CMC)); 105 % of control (endpoint: mean survival time, dose: 8.0 mg/kg/injection, schedule: Q01DX Z (ip), vehicle: carboxymethylcellulose (CMC)).

The record behind these values is PubChem BioAssay AID248 (DTP/NCI, 2004).
